Test results as given in BindingDB's records for patent US9598446 (Achillion Pharmaceuticals, 2017).

Molecular target: Complement factor D (Homo sapiens, UniProt P00746)
Test: Factor D Assay
Description: Human factor D (purified from human serum, Complement Technology, Inc.) at 80 nM final concentration is incubated with test compound at various concentrations for 5 minutes at room temperature in 50 mM Tris, 1M NaCl, pH 7.5. A synthetic substrate Z-L-Lys-SBz1 and DTNB (Ellman's reagent) are added to final concentrations of 100 μM each. The increase in color is recorded at OD405 nm in a microplate in kinetic mode over 30 minutes with 30 second time points in a […]. IC50 values are calculated by non-linear regression from the percentage of inhibition of complement factor D activity as a function of test compound concentration.

Chain of Complement factor D (P00746 whole entry): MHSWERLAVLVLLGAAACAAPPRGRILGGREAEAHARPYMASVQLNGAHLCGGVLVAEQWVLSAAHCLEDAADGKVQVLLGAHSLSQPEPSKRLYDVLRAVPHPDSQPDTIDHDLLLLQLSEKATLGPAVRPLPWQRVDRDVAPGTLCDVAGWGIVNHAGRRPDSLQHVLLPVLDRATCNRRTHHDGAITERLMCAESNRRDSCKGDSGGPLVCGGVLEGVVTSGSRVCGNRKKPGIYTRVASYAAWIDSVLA

CC(=O)c1cn(CC(=O)N2C[C@H](F)C[C@H]2C(=O)Nc2cccc(-c3ccccc3Cl)c2F)c2ccc(N(COC(=O)C(C)(C)C)c3cncnc3)cc12 [US9598446, Compound 15]
IC50: in the range around 5.5 µM
